Patent publication US12630498B2 (Genzyme Corporation, priority 2019, dated 2026)

Target: T1, human Cystic Fibrosis Transmembrane Conductance Regulator (CFTR) harboring the ΔF508 mutation (Homo sapiens, UniProt P13569, DEL508-508)
T1 construct: expressed in transfected cells; host or cells: H441 carcinoma line (G418-selected)
Experiment: H441 cell ΔF508-CFTR-HRP cell surface assay (Emax and EC50)
Assay type: cell-based
Details: for Emax: NCI-H441, NA = Not active
Text: Example 315: H441 Cell Emax and EC50 Two cell lines were used, the H441 carcinoma line and the CFHBE41o- (41o-) human bronchial epithelial line. Both cell lines expressed human Cystic Fibrosis Transmembrane Conductance Regulator (CFTR) harboring the ΔF508 mutation and with an in-frame fusion in CFTR extracellular loop 4 of Horse Radish Peroxidase (HRP) under control of the CMV promoter. In the presence of the HRP tag, ΔF508-CFTR transported to the cell surface was detectable upon addition of an HRP substrate (Luminata Forte). Both cell types were cultivated at 37° C. with CO2. […] For both cell types, the medium was changed every other day unless the culture was at low % confluence. Cells were used for the assays at 75% confluence. To a polypropylene (PP) 384-well plate, 15 pls DMSO was added to all wells in columns 1-22 and 24 (low Control). 15 μls of 260 μM VX809 (Lumacaftor), Selleckchem […], was added to column 23 wells (high Control). 15 pls of 10 mM test compound or VX809 (control) were added to wells of row A. Serial dilutions of Row A compound were performed 2×15 pls in rows A through 0 (15-point). A PP, 384-well plate containing the appropriate cell culture medium was prepared for each assay plate with 100 pls per well. For the doxycycline-induced 41o-cells, doxycycline for both the assay plate and the medium dilution plate was added at 0.0005 mg/ml to the medium. Both cell lines were plated for the assay at 30 pls per 384-well at 3.4×10 e^5 cells per ml ( 10K cells/well). H441 cells were plated on opaque, white, Corning plate 3704. 41o-cells were plated on collagen-coated opaque, white, Corning plate 356665. For 41o-cells, doxycycline was added to the medium. Using FX (Beckman) protocol, 10 pls diluted compound or medium was added per well to the Assay Plate as: 2 pls DMSO Dilution plate well was diluted in 100 pls of the Medium Dilution Plate well, mixed, and 10 pls was transferred to the Assay Plate. The final assay dilution series was 24.5, 12.3, 6.1, 3.1, 1.5, 0.8, 0.4, 0.2, 0.1, 0.05, 0.02, 0.01, 0.006, 0.003, 0.001 and 0 μM. The 41o-assay plates were incubated at 37° C. w/CO2, the H441 assay plates were incubated at 27° C. w/CO2, each overnight for two nights. After being brought to room temperature, the assay plate liquid was removed. 30 uls of Luminata Forte (Millipore ELLUF0100) was added per well and incubated at room temperature for 10 min. The plates were then read on a Topcount, protocol LumiMatti (CPS, luminescence). The data was analyzed for % of maximum, maximum VX809 signal, and EC50 using Pearl and SPEED tools.

T1 sequence (P13569 with tags, fused parts or gaps DEL508-508): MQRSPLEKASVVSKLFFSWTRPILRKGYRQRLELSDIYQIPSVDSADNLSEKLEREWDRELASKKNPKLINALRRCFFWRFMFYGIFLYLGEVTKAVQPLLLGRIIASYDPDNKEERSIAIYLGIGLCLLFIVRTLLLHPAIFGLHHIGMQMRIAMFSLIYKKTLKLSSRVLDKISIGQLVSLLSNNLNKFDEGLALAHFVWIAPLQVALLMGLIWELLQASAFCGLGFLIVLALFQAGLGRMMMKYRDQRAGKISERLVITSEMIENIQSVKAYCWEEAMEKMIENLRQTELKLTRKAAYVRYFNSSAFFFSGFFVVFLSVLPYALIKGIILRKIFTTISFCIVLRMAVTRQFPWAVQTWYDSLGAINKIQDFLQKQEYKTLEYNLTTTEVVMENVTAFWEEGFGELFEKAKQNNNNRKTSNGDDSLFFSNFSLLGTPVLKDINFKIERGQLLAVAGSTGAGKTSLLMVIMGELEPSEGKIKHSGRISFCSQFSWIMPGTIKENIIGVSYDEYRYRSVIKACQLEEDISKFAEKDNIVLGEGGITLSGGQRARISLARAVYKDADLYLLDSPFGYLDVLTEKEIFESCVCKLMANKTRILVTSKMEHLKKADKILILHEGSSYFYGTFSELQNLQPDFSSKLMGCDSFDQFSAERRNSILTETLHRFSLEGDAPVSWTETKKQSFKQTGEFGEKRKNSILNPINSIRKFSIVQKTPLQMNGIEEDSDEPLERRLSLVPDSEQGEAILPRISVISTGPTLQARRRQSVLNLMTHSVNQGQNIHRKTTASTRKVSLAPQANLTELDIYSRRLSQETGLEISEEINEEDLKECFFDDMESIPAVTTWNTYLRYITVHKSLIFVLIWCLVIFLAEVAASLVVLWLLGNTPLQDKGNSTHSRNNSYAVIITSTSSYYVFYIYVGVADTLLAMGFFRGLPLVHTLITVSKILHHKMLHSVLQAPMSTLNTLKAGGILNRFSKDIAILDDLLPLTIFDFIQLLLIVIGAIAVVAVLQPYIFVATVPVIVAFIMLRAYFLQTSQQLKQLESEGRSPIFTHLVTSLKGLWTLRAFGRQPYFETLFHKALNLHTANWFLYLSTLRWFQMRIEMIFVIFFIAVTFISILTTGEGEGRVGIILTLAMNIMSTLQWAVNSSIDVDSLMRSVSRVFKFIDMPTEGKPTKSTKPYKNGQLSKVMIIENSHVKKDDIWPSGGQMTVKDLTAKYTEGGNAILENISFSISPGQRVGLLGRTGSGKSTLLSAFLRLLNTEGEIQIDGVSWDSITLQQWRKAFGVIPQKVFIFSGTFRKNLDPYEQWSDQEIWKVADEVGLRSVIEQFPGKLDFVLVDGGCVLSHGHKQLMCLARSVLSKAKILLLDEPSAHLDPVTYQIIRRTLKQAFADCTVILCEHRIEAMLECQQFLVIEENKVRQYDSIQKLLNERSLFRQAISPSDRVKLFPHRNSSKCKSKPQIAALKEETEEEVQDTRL

EC50 [µM]	Emax [%]	SMILES
18.3	65.2	C[C@@H](OCc1ccccc1)C(NC(=O)c1ccc2ccccc2c1OCc1nc2ccccc2s1)C(=O)O (stereo partly drawn) [Example 148, (3R)-2-(1-(benzo[d]thiazol-2-ylmethoxy)-2-naphthamido)-3-(benzyloxy)butanoic Acid]
0.2	261	Cc1cc(F)c2ccc(C(=O)N[C@H](C(=O)O)C(C)(C)C)c(OCc3ccc(OC(F)(F)F)cc3)c2c1 [Example 271, (2S)-2-[[5-fluoro-7-methyl-1-[[4-(trifluoromethoxy)phenyl]methoxy]naphthalene-2-carbonyl]amino]-3,3-dimethyl-butanoic Acid]
3.3	47.2	COc1ccc2c(OCc3ccc(C(F)(F)F)cc3)c(C(=O)N[C@H](C(=O)O)C3CCCC3)ccc2c1 [Example 160, (S)-2-cyclopentyl-2-(6-methoxy-1-((4-(trifluoromethyl)benzyl)oxy)-2-naphthamido)acetic Acid]
3.4	288	CC(C)(C)C#CCOc1c(C(=O)N[C@H](C(=O)O)C(C)(C)C)ccc2ccccc12 [Example 267, (2S)-2-[[1-(4,4-dimethylpent-2-ynoxy)naphthalene-2-carbonyl]amino]-3,3-dimethyl-butanoic Acid]
1.5	43.6	COc1ccc2c(OCc3ccc(SC(F)(F)F)cc3)c(C(=O)N[C@H](C(=O)O)C(C)(C)C)ccc2c1 [Example 63, (S)-2-(6-methoxy-1-((4-((trifluoromethyl)thio)benzyl)oxy)-2-naphthamido)-3,3-dimethylbutanoic Acid]
0.3	24.5	O=C(N[C@@H](Cc1ccccc1)C(=O)O)c1ccc2ccccc2c1OCc1ccc(Br)cc1 [Example 122, (1-((4-bromobenzyl)oxy)-2-naphthoyl)-L-phenylalanine]
1.8	177	Cc1ccc2ccc(C(=O)N[C@H](C(=O)O)C3(C)CC3)c(OCc3ccc(C(F)(F)F)cc3)c2c1 [Example 229, (2S)-2-(1-methylcyclopropyl)-2-[[7-methyl-1-[[4-(trifluoromethyl)phenyl]methoxy]naphthalene-2-carbonyl]amino]acetic Acid]
4	31.4	O=C(NC(C(=O)O)C(C(F)(F)F)C(F)(F)F)c1ccc2cc(F)ccc2c1OCc1ccc(C(F)(F)F)cc1 (stereo not shown) [Example 182, 4,4,4-trifluoro-2-(6-fluoro-1-((4-(trifluoromethyl)benzyl)oxy)-2-naphthamido)-3-(trifluoromethyl)butanoic Acid]
	18.8	NC(N)=Nc1ccc(C[C@@H](NC(=O)c2ccc3ccccc3c2OCc2ccc(C(F)(F)F)cc2)C(=O)O)cc1 [Example 105, (R)-3-(4-((diaminomethylene)amino)phenyl)-2-(1-((4-(trifluoromethyl)benzyl)oxy)-2-naphthamido)propanoic Acid]
4.4	8.7	CC(C)(C)[C@H](NC(=O)c1ccc2ccccc2c1OCc1ccc(OC(F)(F)F)cc1)C(=O)O [Example 65, (S)-3,3-dimethyl-2-(1-((4-(trifluoromethoxy)benzyl)oxy)-2-naphthamido)butanoic Acid]
7.1	58.3	CC(C)(C)[C@H](NC(=O)c1ccc2cc(F)ccc2c1OCC1CCC(F)(F)CC1)C(=O)O [Example 76, (S)-2-(1-((4,4-difluorocyclohexyl)methoxy)-6-fluoro-2-naphthamido)-3,3-dimethylbutanoic Acid]
13.7	93.2	O=C(NC(C(=O)O)C(C(F)(F)F)C(F)(F)F)c1ccc2ccccc2c1OCc1ccc(C(F)(F)F)cc1 (stereo not shown) [Example 181, 4,4,4-trifluoro-3-(trifluoromethyl)-2-(1-((4-(trifluoromethyl)benzyl)oxy)-2-naphthamido)butanoic Acid]
2.4	51.9	CC(C)(c1ccccc1)[C@H](NC(=O)c1ccc2cc(F)ccc2c1OCC1CCC(F)(F)CC1)C(=O)O [Example 7, (S)-2-(1-((4,4-difluorocyclohexyl)methoxy)-6-fluoro-2-naphthamido)-3-methyl-3-phenylbutanoic Acid]
1.1	80.8	COc1ccc2c(OCc3ccc(C(F)(F)F)cc3)c(C(=O)N[C@H](C(=O)O)C(C)(C)C)ccc2c1 [Example 38, (S)-2-(6-methoxy-1-((4-(trifluoromethyl)benzyl)oxy)-2-naphthamido)-3,3-dimethylbutanoic Acid]
11.4	70.8	Nc1ccc2c(OCc3ccc(C(F)(F)F)cc3)c(C(=O)N[C@H](C(=O)O)C3CCCC3)ccc2c1 [Example 187, (S)-2-(6-amino-1-((4-(trifluoromethyl)benzyl)oxy)-2-naphthamido)-2-cyclopentylacetic Acid]
6.7	22.8	CS(=O)(=O)c1ccc(COc2c(C(=O)N[C@H](C(=O)O)C3CCCC3)ccc3ccccc23)cc1 [Example 159, (S)-2-cyclopentyl-2-(1-((4-(methylsulfonyl)benzyl)oxy)-2-naphthamido)acetic Acid]
1.6	53	CN(C)c1ccc2c(OCc3ccc(C(F)(F)F)cc3)c(C(=O)N[C@H](C(=O)O)C(C)(C)C)ccc2c1 [compound 85, (S)-2-(6-(dimethylamino)-1-((4-(trifluoromethyl)benzyl)oxy)-2-naphthamido)-3,3-dimethylbutanoic Acid]
14.2	52.7	CC(C)(C)C[C@H](NC(=O)c1ccc2cc(F)ccc2c1OCC1CCC(F)(F)CC1)C(=O)O [Example 109, (S)-2-(1-((4,4-difluorocyclohexyl)methoxy)-6-fluoro-2-naphthamido)-4,4-dimethylpentanoic Acid]
16.4	38.4	COCC[C@H](NC(=O)c1ccc2ccccc2c1OCc1ccc(C(F)(F)F)cc1)C(=O)O [Example 137, O-methyl-N-(1-((4-(trifluoromethyl)benzyl)oxy)-2-naphthoyl)-L-homoserine]
	13	CC(C)(C)C[C@H](NC(=O)c1ccc2ccccc2c1OCc1ccc(S(C)(=O)=O)cc1)C(=O)O [Example 158, (S)-4,4-dimethyl-2-(1-((4-(methylsulfonyl)benzyl)oxy)-2-naphthamido)pentanoic Acid]
11.6	49.2	O=C(N[C@H](C(=O)O)C(c1ccccc1)c1ccccc1)c1ccc2ccccc2c1OCc1ccc(C(F)(F)F)cn1 [Example 132, (S)-3,3-diphenyl-2-(1-((5-(trifluoromethyl)pyridin-2-yl)methoxy)-2-naphthamido)propanoic Acid]
1.9	58.1	CC(C)(C)C[C@H](NC(=O)c1ccc2cc(F)ccc2c1OCc1ccc(S(F)(F)(F)(F)F)cc1)C(=O)O [Example 112, (S)-2-(6-fluoro-1-((4-(pentafluoro-16-sulfanyl)benzyl)oxy)-2-naphthamido)-4,4-dimethylpentanoic Acid]
0.2	225	CCCC(C)(CC)[C@H](NC(=O)c1ccc2ccc(F)cc2c1OCc1ccc(OC(F)(F)F)cc1)C(=O)O (stereo partly drawn) [compound 290, (2S)-3-ethyl-2-(7-fluoro-1-((4-(trifluoromethoxy)benzyl)oxy)-2-naphthamido)-3-methylhexanoic Acid]
	14	NC12CCC(C(NC(=O)c3ccc4cc(F)ccc4c3OCc3ccc(C(F)(F)F)cc3)C(=O)O)(CC1)CC2 (stereo not shown) [Example 185, 2-(4-aminobicyclo[2.2.2]octan-1-yl)-2-(6-fluoro-1-((4-(trifluoromethyl)benzyl)oxy)-2-naphthamido)acetic Acid]
1.4	58.9	CCC(C)(C)[C@H](NC(=O)c1ccc2cc(OC)ccc2c1OCc1ccc(C(F)(F)F)cc1)C(=O)O [Example 83, (S)-2-(6-methoxy-1-((4-(trifluoromethyl)benzyl)oxy)-2-naphthamido)-3,3-dimethylpentanoic Acid]
16.4	22.4	CC(C)(O)[C@H](NC(=O)c1ccc2ccccc2c1OCc1ccc(C(F)(F)F)cc1)C(=O)O [Example 138, (S)-3-hydroxy-3-methyl-2-(1-((4-(trifluoromethyl)benzyl)oxy)-2-naphthamido)butanoic Acid]
